Reference: article PMC12715762, “Discovery of VU6052254: A Novel, Potent M1 Positive Allosteric Modulator” (ACS Chemical Neuroscience, 2025)

Experiments:
3A4 [1] = assay: CYP induction repeated at a different CRO (mRNA and protein); assay type: cell-based; conditions: result in words
3A4 [2] = assay: CYP450 induction in human hepatocytes (three donors); assay type: cell-based
Dopamine D4.2 = Dopamine D4.2 (Homo sapiens, UniProt P21917, DEL265-296); assay: Eurofins radioligand binding
Adrenergic β2 = Adrenergic β2 (Homo sapiens, UniProt P07550); assay: Eurofins radioligand binding
[3] = target: Epidermal Growth Factor (EGF) (Homo sapiens, UniProt P00533); assay: Eurofins radioligand binding
Endothelin ETA = Endothelin ETA (Homo sapiens, UniProt P25101); assay: Eurofins radioligand binding
Endothelin ETB = Endothelin ETB (Homo sapiens, UniProt P24530); assay: Eurofins radioligand binding
Cannabinoid CB1 = Cannabinoid CB1 (Homo sapiens, UniProt P21554); assay: Eurofins radioligand binding
Adrenergic α1B = Adrenergic α1B (Homo sapiens, UniProt P35368); assay: Eurofins radioligand binding
[4] = plasma protein binding, equilibrium dialysis (rat); assay type: in vitro ADME; conditions: pH 7.4, rat (r), read-out: fu,plasma
Method: Plasma protein binding and Brain homogenate binding: Determination of fraction unbound (f u) in plasma was conducted in vitro via equilibrium dialysis using HTDialysis (HTD) membrane plates. The top half of the plate was filled with 100 uL of Dubelco’s Phosphate Buffered Saline, pH 7.4 (DPBS). Compounds were diluted into plasma from each species (5 µM final concentration), which was aliquoted in triplicate to the ‘bottom half’ of the prepared HTD plate wells. The HTD plate was sealed and incubated for 6 hours at 37 °C. Following incubation, each well (both top and bottom halves) were transferred (20 µL) to the corresponding wells of a 96-shallow-well (V-bottom) plate. […]
The unbound fraction (f u) was calculated following the equation below, and mean values for each species were calculated from 3 replicates.
A similar approach was used to determine the degree of brain homogenate binding, which employed the same methodology and procedure with the following modifications: 1) a final compound concentration of 1 μM was used, 2) naïve rat brains were homogenized in DPBS (1:3 composition of brain: DPBS, w/w) using a Mini-Bead Beater™ machine in order to obtain brain homogenate, which was then treated in the same manner as the plasma samples in the previously described plasma protein binding assay. Fraction unbound for both plasma and brain samples was determined using Equation 4. […]

[5] = IV/PO pharmacokinetics (NHP); assay type: in vivo; conditions: NHP (cyno)
Imidazoline I2, Central = assay: Eurofins radioligand binding; conditions: Rat
[6] = cynomolgus monkey, plasma, 3 mg/kg po

Dopamine D4.2, sequence (P21917 with tags, fused parts or gaps DEL265-296): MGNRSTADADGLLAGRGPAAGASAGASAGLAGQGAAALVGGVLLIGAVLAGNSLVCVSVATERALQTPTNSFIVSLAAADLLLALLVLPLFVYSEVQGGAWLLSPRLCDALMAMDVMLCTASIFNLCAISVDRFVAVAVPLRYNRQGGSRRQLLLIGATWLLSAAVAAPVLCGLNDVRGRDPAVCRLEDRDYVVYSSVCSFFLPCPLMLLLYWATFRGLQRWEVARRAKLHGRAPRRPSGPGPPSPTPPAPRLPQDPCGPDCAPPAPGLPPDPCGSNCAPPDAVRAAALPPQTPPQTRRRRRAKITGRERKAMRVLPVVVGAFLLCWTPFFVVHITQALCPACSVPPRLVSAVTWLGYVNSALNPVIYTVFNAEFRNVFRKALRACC
Cannabinoid CB1, sequence (P21554 whole entry): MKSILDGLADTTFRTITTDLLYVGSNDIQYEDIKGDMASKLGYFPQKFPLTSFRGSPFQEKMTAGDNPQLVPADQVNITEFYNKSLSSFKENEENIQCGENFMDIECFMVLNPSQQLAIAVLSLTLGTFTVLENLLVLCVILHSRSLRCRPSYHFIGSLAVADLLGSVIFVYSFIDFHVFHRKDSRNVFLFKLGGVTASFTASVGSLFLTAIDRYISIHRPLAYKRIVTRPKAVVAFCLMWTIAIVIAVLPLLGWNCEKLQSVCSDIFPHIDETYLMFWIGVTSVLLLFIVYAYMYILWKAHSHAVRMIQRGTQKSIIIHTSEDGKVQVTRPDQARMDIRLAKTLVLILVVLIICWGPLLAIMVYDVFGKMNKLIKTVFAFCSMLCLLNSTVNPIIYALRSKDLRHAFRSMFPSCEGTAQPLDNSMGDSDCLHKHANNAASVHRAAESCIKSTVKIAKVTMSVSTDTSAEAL
Endothelin ETB, sequence (P24530 27-442): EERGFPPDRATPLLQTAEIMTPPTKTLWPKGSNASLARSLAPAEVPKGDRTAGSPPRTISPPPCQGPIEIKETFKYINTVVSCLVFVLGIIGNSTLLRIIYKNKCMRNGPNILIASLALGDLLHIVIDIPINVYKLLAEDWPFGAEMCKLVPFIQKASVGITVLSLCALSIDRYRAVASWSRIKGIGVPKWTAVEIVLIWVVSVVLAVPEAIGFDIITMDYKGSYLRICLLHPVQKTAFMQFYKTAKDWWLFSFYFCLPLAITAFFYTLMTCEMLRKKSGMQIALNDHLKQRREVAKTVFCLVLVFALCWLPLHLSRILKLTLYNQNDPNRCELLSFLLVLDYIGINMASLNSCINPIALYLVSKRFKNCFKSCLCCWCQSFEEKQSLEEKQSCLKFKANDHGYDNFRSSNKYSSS
Adrenergic β2, sequence (P07550 whole entry): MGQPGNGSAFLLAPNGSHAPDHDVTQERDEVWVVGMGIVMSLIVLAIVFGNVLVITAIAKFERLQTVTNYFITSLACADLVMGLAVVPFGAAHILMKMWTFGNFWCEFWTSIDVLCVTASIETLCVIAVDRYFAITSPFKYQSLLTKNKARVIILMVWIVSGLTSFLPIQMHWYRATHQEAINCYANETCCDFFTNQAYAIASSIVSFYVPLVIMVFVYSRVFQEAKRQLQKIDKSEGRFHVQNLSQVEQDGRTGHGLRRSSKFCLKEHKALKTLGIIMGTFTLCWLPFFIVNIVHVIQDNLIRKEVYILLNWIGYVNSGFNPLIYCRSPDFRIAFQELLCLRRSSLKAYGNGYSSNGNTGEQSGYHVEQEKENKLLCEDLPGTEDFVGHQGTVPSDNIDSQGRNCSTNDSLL
Epidermal Growth Factor (EGF), sequence (P00533 25-1210): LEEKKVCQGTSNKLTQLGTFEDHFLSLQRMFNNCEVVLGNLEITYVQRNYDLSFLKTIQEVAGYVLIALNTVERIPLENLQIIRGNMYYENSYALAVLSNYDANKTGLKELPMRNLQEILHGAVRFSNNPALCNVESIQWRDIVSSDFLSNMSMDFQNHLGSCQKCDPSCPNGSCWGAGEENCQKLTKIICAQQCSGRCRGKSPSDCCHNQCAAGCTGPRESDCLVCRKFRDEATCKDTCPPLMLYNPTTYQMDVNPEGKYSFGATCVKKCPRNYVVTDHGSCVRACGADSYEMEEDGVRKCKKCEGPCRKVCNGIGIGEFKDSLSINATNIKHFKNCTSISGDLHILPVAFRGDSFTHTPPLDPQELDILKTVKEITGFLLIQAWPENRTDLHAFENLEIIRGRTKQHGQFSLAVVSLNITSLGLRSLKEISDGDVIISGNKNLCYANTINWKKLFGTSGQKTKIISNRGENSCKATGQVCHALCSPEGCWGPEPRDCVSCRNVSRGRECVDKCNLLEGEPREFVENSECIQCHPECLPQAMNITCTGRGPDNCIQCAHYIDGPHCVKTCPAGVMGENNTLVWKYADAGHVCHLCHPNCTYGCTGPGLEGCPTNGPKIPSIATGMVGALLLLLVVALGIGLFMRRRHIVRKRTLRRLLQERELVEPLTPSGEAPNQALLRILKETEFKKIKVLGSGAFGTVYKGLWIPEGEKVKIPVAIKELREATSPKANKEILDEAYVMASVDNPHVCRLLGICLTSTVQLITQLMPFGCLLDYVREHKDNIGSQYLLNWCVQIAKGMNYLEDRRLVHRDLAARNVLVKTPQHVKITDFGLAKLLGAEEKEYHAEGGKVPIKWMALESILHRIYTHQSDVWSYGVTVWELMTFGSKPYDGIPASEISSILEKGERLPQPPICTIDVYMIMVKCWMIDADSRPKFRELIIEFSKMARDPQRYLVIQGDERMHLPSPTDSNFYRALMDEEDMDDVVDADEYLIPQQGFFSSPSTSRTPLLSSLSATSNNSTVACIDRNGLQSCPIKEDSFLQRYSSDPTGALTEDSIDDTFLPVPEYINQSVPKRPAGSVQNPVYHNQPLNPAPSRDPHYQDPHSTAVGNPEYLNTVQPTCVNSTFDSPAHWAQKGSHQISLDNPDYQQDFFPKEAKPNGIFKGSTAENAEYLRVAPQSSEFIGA
Endothelin ETA, sequence (P25101 21-427): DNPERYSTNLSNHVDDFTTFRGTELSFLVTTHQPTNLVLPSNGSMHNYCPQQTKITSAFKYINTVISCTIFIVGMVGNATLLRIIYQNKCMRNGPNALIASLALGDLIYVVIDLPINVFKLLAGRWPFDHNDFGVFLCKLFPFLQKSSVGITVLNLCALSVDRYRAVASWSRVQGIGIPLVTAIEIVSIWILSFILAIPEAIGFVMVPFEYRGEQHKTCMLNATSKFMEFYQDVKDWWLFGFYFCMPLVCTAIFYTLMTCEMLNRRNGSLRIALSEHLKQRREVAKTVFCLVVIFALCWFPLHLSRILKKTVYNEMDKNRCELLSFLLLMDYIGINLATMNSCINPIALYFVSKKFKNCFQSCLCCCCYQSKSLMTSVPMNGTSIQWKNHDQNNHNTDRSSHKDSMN
Adrenergic α1B, sequence (P35368 whole entry): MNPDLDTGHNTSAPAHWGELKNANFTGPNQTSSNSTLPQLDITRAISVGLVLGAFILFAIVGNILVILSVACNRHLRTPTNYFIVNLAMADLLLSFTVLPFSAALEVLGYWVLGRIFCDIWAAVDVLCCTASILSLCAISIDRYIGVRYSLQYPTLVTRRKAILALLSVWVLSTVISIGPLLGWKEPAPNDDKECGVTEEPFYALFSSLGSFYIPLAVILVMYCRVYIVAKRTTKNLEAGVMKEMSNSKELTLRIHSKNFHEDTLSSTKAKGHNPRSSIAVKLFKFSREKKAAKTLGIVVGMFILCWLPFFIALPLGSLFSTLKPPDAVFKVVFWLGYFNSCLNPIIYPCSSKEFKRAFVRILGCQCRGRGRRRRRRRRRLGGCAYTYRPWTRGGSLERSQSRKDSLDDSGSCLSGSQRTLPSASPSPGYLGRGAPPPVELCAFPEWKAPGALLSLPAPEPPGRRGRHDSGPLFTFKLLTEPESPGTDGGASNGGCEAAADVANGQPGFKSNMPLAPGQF

In the case of `Cn1cc2c(-c3cc(F)c(CN4Cc5ncccc5C4=O)c(F)c3)ccc(C(C)(C)O)c2n1` [compound 7], the “3A4 induction, mRNA and protein” value (3A4 [1]) was “not to be an inducer of 3A4”, the 3A4 induction (3A4 [2]; 10 μM, human hepatocytes from three donors) was 7.6% and the 3A4 induction (3A4 [2]; 30 μM, mRNA as the reporter) was 30.5%. It also gave an inhibition at 10 µM (Dopamine D4.2) of -5%, an inhibition at 10 µM (Adrenergic β2) of -4% and an inhibition at 10 µM [3] of -14%. For the same compound, the inhibition at 10 µM (Endothelin ETA) was 11%, the inhibition at 10 µM (Endothelin ETB) was 6% and the inhibition at 10 µM (Cannabinoid CB1) was 25%. For the same compound, the inhibition at 10 µM (Adrenergic α1B) was 8%, the fraction unbound at 6 h, 5 µM [4] was 0.023 and the “F (%) po” value ([5]; 3 mg/kg po) was 76%. For the same compound, the clearance ([5]; cynomolgus monkey, plasma, 1 mg/kg iv, read-out: CLp) was 7.3 mL/min/kg, the half-life ([5]; cynomolgus monkey, plasma, 1 mg/kg iv, read-out: Elimination t1/2 (converted)) was 4.9 h and the Vd ([5]; cynomolgus monkey, plasma, 1 mg/kg iv, read-out: Vss) was 1.5 L/kg. For the same compound, the AUC [5, 6] was 12.4 µM·h, the Cmax [5, 6] was 1100 nM and the Tmax [5, 6] was 4.7 h. For the same compound, the “% Inhibition at 10 µM” value (Imidazoline I2, Central) was 64%.
